{"source": "patent US20240352429A1", "about": "“AGENT FOR INDUCING VIRAL VECTOR PRODUCTION” (priority 2021, published 2024)", "key": {"[1]": {"system": "suspension HEK293 cells (FreeStyle 293F cell)", "type": "cell-based", "details": "for titer of adeno-associated virus vector in the cell-derived sample, various cell growth inhibitors A: nocodazole 500 nM, benzimidazoles 50 μM, 5 μM, 500 nM, vinblastine sulfate, colcemid, taxanes 5 μM, 100 nM, FIG. 3 to 7"}, "virus-like particles": {"system": "virus-like particles", "details": "known from Non Patent Literature 1; cited from earlier work"}, "suspension HEK293 cells [2]": {"system": "suspension HEK293 cells", "test": "Titer of adeno-associated virus vector (AAV2) produced with a bioreactor (400 mL culture medium), quantitative PCR", "type": "cell-based", "details": "nocodazole final 500 nM in DMSO, added 4 hours after introduction of the nucleic acid; vs w/o; FIG. 9", "procedure": "On the day of introduction of a nucleic acid into the cells, the suspension HEK293 cells were seeded in a bioreactor (animal cell culture apparatus BCP, volume 1 L, ABLE Corporation), with the number of cells being adjusted to 1×10^6 cells/mL (in an amount of culture medium of 400 mL).\npRC2-mi342 (1 μg/μL, 240 μL, packaging plasmid DNA), pAAV-Venus (1 μg/μL, 80 μL, vector plasmid DNA), pHelper (1 μg/μL, 160 μL, helper plasmid DNA), and PEI MAX (1 μg/μL, 960 μL, Polysciences Inc.) as polyethylenimine (PEI) were mixed and left to stand in Opti-MEM (Thermo Fisher Scientific K.K.) for production of a double-stranded circular plasmid DNA-PEI mixed solution.\nNucleic acids were introduced into the cells by adding the double-stranded circular plasmid DNA-PEI mixed solution to the cell culture medium. Thereafter, AAV2 was produced by culturing at 37° C. in the presence of 8% CO2 for 4 days.\nFour days after introduction of the nucleic acid into the cells, the supernatant and the cells were separated, PEG8000 (Sigma-Aldrich Co. LLC) was added to the supernatant obtained, and the adeno-associated virus vector was concentrated. Triton X-100 (Sigma-Aldrich Co. LLC) was added to the residual for cell lysis, and thereafter KANEKA Endonuclease (KANEKA CORPORATION) was added for degradation of DNA. […]\nQuantification of the adeno-associated virus was performed by the same method as in Example 1."}, "suspension HEK293 cells [3]": {"system": "suspension HEK293 cells", "test": "Titer of adeno-associated virus vector (AAV2) by quantitative PCR after introducing linear covalently closed DNA (LCC DNA) with PEI", "type": "cell-based", "details": "for titer of adeno-associated virus vector from the cell-derived sample, LCC DNA: DMSO as solubilizer, nocodazole 500 nM added 1 minute after introduction, oxibendazole 50 μM, 5 μM, 500 nM, 50 nM, FIG. 11", "procedure": "On the day of introduction of the nucleic acid into the cells, the suspension HEK293 cells were seeded in a 50-mL centrifuge tube equipped with a filter cap, with the number of cells being adjusted to 1×10^6 cells/mL (an amount of culture medium of 5 mL).\nIn the condition where a linear covalently closed DNA was used as the nucleic acid to be introduced into the cells, RC2_LCC_DNA (1 μg/μL, 4 μL, packaging plasmid DNA), Venus_LCC_DNA (1 μg/μL, 1 μL, vector plasmid DNA), Helper_LCC_DNA (1 μg/μL, 1 μL, helper plasmid DNA), and PEI MAX (1 μg/μL, 12 μL, Polysciences Inc.) as polyethylenimine (PEI) were mixed and left to stand in Opti-MEM (Thermo Fisher Scientific K.K.) for production of a LCC DNA-PEI mixed solution. Nucleic acids were introduced into the cells by adding the LCC DNA-PEI mixed solution to the cell culture medium. Thereafter, AAV2 was produced by culturing at 37° C. in the presence of 8% CO2 for 4 days.\nExtraction and quantification of the adeno-associated virus vector were carried out by the same methods as in Example 1.\nWhen the cell growth inhibitor A was oxibendazole (Tokyo Chemical Industry Co., Ltd.), DMSO was used as a solubilizer, and oxibendazole was added to the cell culture medium so that the final concentrations of oxibendazole were four kinds of concentrations, i.e., 50 μM, 5 μM, 500 nM, and 50 nM."}, "[4]": {"details": "added 4 hours after introduction of the nucleic acid, DMSO as solubilizer"}}, "data": [{"smiles": "CCCSc1ccc2nc(NC(=O)OC)[nH]c2c1", "note": "[albendazole]", "values": [{"measurement": "titer of adeno-associated virus vector in the cell-derived sample, various cell growth inhibitors A", "setting": "[1]; [4]", "value": "improved"}]}, {"smiles": "CC(=O)O[C@@]12CO[C@@H]1C[C@H](O)[C@@]1(C)C(=O)[C@H](O)C3=C(C)[C@@H](OC(=O)[C@H](O)[C@@H](NC(=O)OC(C)(C)C)c4ccccc4)C[C@@](O)([C@@H](OC(=O)c4ccccc4)[C@H]21)C3(C)C", "note": "[docetaxel]", "values": [{"measurement": "titer of adeno-associated virus vector in the cell-derived sample, various cell growth inhibitors A", "setting": "[1]; [4]", "value": "improved"}]}, {"smiles": "COC(=O)Nc1nc2ccc(Sc3ccccc3)cc2[nH]1", "note": "[fenbendazole]", "values": [{"measurement": "titer of adeno-associated virus vector in the cell-derived sample, various cell growth inhibitors A", "setting": "[1]; [4]", "value": "improved"}]}, {"smiles": "COC(=O)Nc1nc2ccc(C(=O)c3cccs3)cc2[nH]1", "note": "[nocodazole]", "values": [{"measurement": "productivity of virus-like particles", "setting": "virus-like particles", "value": "reduces"}, {"measurement": "total titer of adeno-associated virus vector (cell-derived and supernatant-derived sample) at bioreactor scale", "setting": "suspension HEK293 cells [2]", "value": "reproduced"}, {"measurement": "titer of adeno-associated virus vector in the cell-derived sample, various cell growth inhibitors A", "setting": "[1]; [4]", "value": "improved"}, {"measurement": "total titer of adeno-associated virus vector (cell-derived sample and supernatant-derived sample)", "setting": "[1]; final concentration from 250 nM to 2 μM, DMSO as solubilizer, added 4 hours after introduction of the nucleic acid, 4 days culture, vs 0 nM (DMSO only), FIG. 1", "value": "improved"}, {"measurement": "effect of improving the titer of adeno-associated virus vector (cell-derived sample) compared with sodium valproate", "setting": "[1]; nocodazole 500 nM in DMSO vs sodium valproate (VPA) 1, 2.5, 5, 10 or 12.5 mM in water, FIG. 8", "value": "larger"}, {"measurement": "increase of the titer of adeno-associated virus vector (cell-derived sample), double-stranded circular plasmid DNA", "setting": "[1]; nocodazole 500 nM in DMSO, added 1 minute after introduction of the nucleic acid, pDNA, vs w/o, FIG. 10", "value": "eightfold"}, {"measurement": "titer of adeno-associated virus vector in the cell-derived sample, influence of timing of addition", "setting": "[1]; nocodazole final 500 nM in DMSO, added between 24 hours before and 4 hours after introduction of the nucleic acid, vs DMSO only, FIG. 2", "value": "improved"}, {"measurement": "titer of adeno-associated virus vector from the cell-derived sample, LCC DNA", "setting": "suspension HEK293 cells [3]", "value": "increased"}, {"measurement": "increase of the titer of adeno-associated virus vector (cell-derived sample), linear covalently closed DNA", "setting": "suspension HEK293 cells [3]; nocodazole 500 nM in DMSO, added 1 minute after introduction of the nucleic acid, vs w/o, FIG. 10", "value": "fourteenfold"}]}, {"smiles": "CCCOc1ccc2nc(NC(=O)OC)[nH]c2c1", "note": "[oxibendazole]", "values": [{"measurement": "titer of adeno-associated virus vector from the cell-derived sample, LCC DNA", "setting": "suspension HEK293 cells [3]", "value": "increased"}]}, {"smiles": "CC(=O)O[C@H]1C(=O)[C@@]2(C)[C@H]([C@H](OC(=O)c3ccccc3)[C@]3(O)C[C@H](OC(=O)[C@H](O)[C@@H](NC(=O)c4ccccc4)c4ccccc4)C(C)=C1C3(C)C)[C@]1(OC(C)=O)CO[C@@H]1C[C@@H]2O", "note": "[paclitaxel]", "values": [{"measurement": "titer of adeno-associated virus vector in the cell-derived sample, various cell growth inhibitors A", "setting": "[1]; [4]", "value": "improved"}]}, {"smiles": "CC[C@]1(O)C[C@@H]2CN(CCc3c([nH]c4ccccc34)[C@@](C(=O)OC)(c3cc4c(cc3OC)N(C)[C@H]3[C@@](O)(C(=O)OC)[C@H](OC(C)=O)[C@]5(CC)C=CCN6CC[C@]43[C@@H]65)C2)C1", "note": "[vinblastine]", "values": [{"measurement": "titer of adeno-associated virus vector in the cell-derived sample, various cell growth inhibitors A", "setting": "[1]; [4]", "value": "improved"}]}]}
